Measurements reported in PubChem BioAssay (NCI).
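How tested: cells in 96-well plates exposed to compound for 48 hours at five concentrations. Abbreviation: GI50, concentration required for 50% inhibition of growth. TGI: total growth inhibition.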

What was measured:
Experiment in all cases: growth of human tumour cells (NCI), 48 h
SF-295 CNS = system: SF-295 CNS
OVCAR-8 ovarian = system: OVCAR-8 ovarian
NCI-H522 lung = system: NCI-H522 lung
MOLT-4 leukemia = system: MOLT-4 leukemia
RXF 393 renal = system: RXF 393 renal
MCF7 breast = system: MCF7 breast
OVCAR-4 ovarian = system: OVCAR-4 ovarian
ACHN renal = system: ACHN renal
BT-549 breast = system: BT-549 breast
SR leukemia = system: SR leukemia
HT29 colon = system: HT29 colon
NCI-H460 lung = system: NCI-H460 lung
OVCAR-5 ovarian = system: OVCAR-5 ovarian
UACC-257 melanoma = system: UACC-257 melanoma
OVCAR-3 ovarian = system: OVCAR-3 ovarian
K-562 leukemia = system: K-562 leukemia
DU-145 prostate = system: DU-145 prostate
NCI/ADR-RES ovarian = system: NCI/ADR-RES ovarian
786-0 renal = system: 786-0 renal
PC-3 prostate = system: PC-3 prostate
UACC-62 melanoma = system: UACC-62 melanoma
HL-60(TB) leukemia = system: HL-60(TB) leukemia
SNB-19 CNS = system: SNB-19 CNS
U251 CNS = system: U251 CNS
MDA-MB-468 breast = system: MDA-MB-468 breast
SK-MEL-5 melanoma = system: SK-MEL-5 melanoma
COLO 205 colon = system: COLO 205 colon
HCC-2998 colon = system: HCC-2998 colon
LOX IMVI melanoma = system: LOX IMVI melanoma
M14 melanoma = system: M14 melanoma
T-47D breast = system: T-47D breast
SN12C renal = system: SN12C renal
MALME-3M melanoma = system: MALME-3M melanoma
A498 renal = system: A498 renal
IGROV1 ovarian = system: IGROV1 ovarian
SK-MEL-28 melanoma = system: SK-MEL-28 melanoma
RPMI-8226 leukemia = system: RPMI-8226 leukemia
HCT-116 colon = system: HCT-116 colon
SF-268 CNS = system: SF-268 CNS
CAKI-1 renal = system: CAKI-1 renal
NCI-H23 lung = system: NCI-H23 lung
HCT-15 colon = system: HCT-15 colon
HOP-62 NSCLC = system: HOP-62 NSCLC
KM12 colon = system: KM12 colon
SF-539 CNS = system: SF-539 CNS
NCI-H226 lung = system: NCI-H226 lung
SK-OV-3 ovarian = system: SK-OV-3 ovarian
HOP-92 NSCLC = system: HOP-92 NSCLC
SK-MEL-2 melanoma = system: SK-MEL-2 melanoma
SW-620 colon = system: SW-620 colon
MDA-MB-435 = system: MDA-MB-435
EKVX NSCLC = system: EKVX NSCLC
MDA-MB-231 breast = system: MDA-MB-231 breast
TK-10 renal = system: TK-10 renal
CCRF-CEM leukemia = system: CCRF-CEM leukemia
UO-31 renal = system: UO-31 renal
HS 578T breast = system: HS 578T breast
SNB-75 CNS = system: SNB-75 CNS
A549 NSCLC = system: A549 NSCLC

O=C(CS(=O)(=O)c1oc(-c2ccc(Cl)cc2)nc1S(=O)(=O)c1ccc(Cl)cc1)N1CCOCC1
GI50 (SF-295 CNS): 16.9 µM
TGI (SF-295 CNS): 54.7 µM
GI50 (OVCAR-8 ovarian): 15.4 µM
TGI (OVCAR-8 ovarian): 35.4 µM
GI50 (NCI-H522 lung): 1.64 µM
TGI (NCI-H522 lung): 3.51 µM
GI50 (MOLT-4 leukemia): 2.54 µM
TGI (MOLT-4 leukemia): 18.7 µM
GI50 (RXF 393 renal): 2.58 µM
TGI (RXF 393 renal): 8.82 µM
GI50 (MCF7 breast): 4 µM
TGI (MCF7 breast): 18.5 µM
GI50 (OVCAR-4 ovarian): 12.7 µM
TGI (OVCAR-4 ovarian): 27.6 µM
GI50 (ACHN renal): 3.17 µM
TGI (ACHN renal): 11.3 µM
GI50 (BT-549 breast): 4.64 µM
TGI (BT-549 breast): 16.8 µM
GI50 (SR leukemia): 2.86 µM
TGI (SR leukemia): > 100 µM
GI50 (HT29 colon): 4.32 µM
TGI (HT29 colon): 40.2 µM
GI50 (NCI-H460 lung): 16.5 µM
TGI (NCI-H460 lung): 39.4 µM
GI50 (OVCAR-5 ovarian): 13.6 µM
TGI (OVCAR-5 ovarian): 31.6 µM
GI50 (UACC-257 melanoma): 15.4 µM
TGI (UACC-257 melanoma): 30.2 µM
GI50 (OVCAR-3 ovarian): 3.3 µM
TGI (OVCAR-3 ovarian): 10.5 µM
GI50 (K-562 leukemia): 2.14 µM
TGI (K-562 leukemia): > 100 µM
GI50 (DU-145 prostate): 12.3 µM
TGI (DU-145 prostate): 24.8 µM
GI50 (NCI/ADR-RES ovarian): 14.5 µM
TGI (NCI/ADR-RES ovarian): 31.2 µM
GI50 (786-0 renal): 7.65 µM
TGI (786-0 renal): 21.8 µM
GI50 (PC-3 prostate): 11.9 µM
TGI (PC-3 prostate): 31.5 µM
GI50 (UACC-62 melanoma): 11.1 µM
TGI (UACC-62 melanoma): 23.8 µM
GI50 (HL-60(TB) leukemia): 4.49 µM
TGI (HL-60(TB) leukemia): 34.9 µM
GI50 (SNB-19 CNS): 27.5 µM
TGI (SNB-19 CNS): > 100 µM
GI50 (U251 CNS): 38 µM
TGI (U251 CNS): > 100 µM
GI50 (MDA-MB-468 breast): 2.52 µM
TGI (MDA-MB-468 breast): 8.07 µM
GI50 (SK-MEL-5 melanoma): 24.3 µM
TGI (SK-MEL-5 melanoma): 86.3 µM
GI50 (COLO 205 colon): 11.6 µM
TGI (COLO 205 colon): 55.9 µM
GI50 (HCC-2998 colon): 17.2 µM
TGI (HCC-2998 colon): 40.8 µM
GI50 (LOX IMVI melanoma): 1.84 µM
TGI (LOX IMVI melanoma): 4.27 µM
GI50 (M14 melanoma): 6.75 µM
TGI (M14 melanoma): 21 µM
GI50 (T-47D breast): 3.32 µM
TGI (T-47D breast): 16.3 µM
GI50 (SN12C renal): 12.1 µM
TGI (SN12C renal): 25.8 µM
GI50 (MALME-3M melanoma): 2.81 µM
TGI (MALME-3M melanoma): 9.77 µM
GI50 (A498 renal): 26.8 µM
TGI (A498 renal): 93.4 µM
GI50 (IGROV1 ovarian): 11 µM
TGI (IGROV1 ovarian): 23.7 µM
GI50 (SK-MEL-28 melanoma): 12.1 µM
TGI (SK-MEL-28 melanoma): 24.5 µM
GI50 (RPMI-8226 leukemia): 5.2 µM
TGI (RPMI-8226 leukemia): > 100 µM
GI50 (HCT-116 colon): 3.04 µM
TGI (HCT-116 colon): 11.4 µM
GI50 (SF-268 CNS): 15.1 µM
TGI (SF-268 CNS): 33.7 µM
GI50 (CAKI-1 renal): 6.63 µM
TGI (CAKI-1 renal): 19.4 µM
GI50 (NCI-H23 lung): 13.4 µM
TGI (NCI-H23 lung): 26.5 µM
GI50 (HCT-15 colon): 2.27 µM
TGI (HCT-15 colon): 5.68 µM
GI50 (HOP-62 NSCLC): 18.1 µM
TGI (HOP-62 NSCLC): 47.3 µM
GI50 (KM12 colon): 29.5 µM
TGI (KM12 colon): > 100 µM
GI50 (SF-539 CNS): 7.94 µM
TGI (SF-539 CNS): 20.5 µM
GI50 (NCI-H226 lung): 22.9 µM
TGI (NCI-H226 lung): 91 µM
GI50 (SK-OV-3 ovarian): 40.8 µM
TGI (SK-OV-3 ovarian): > 100 µM
GI50 (HOP-92 NSCLC): 10.7 µM
TGI (HOP-92 NSCLC): 28.6 µM
GI50 (SK-MEL-2 melanoma): 16.7 µM
TGI (SK-MEL-2 melanoma): 32.4 µM
GI50 (SW-620 colon): 2.06 µM
TGI (SW-620 colon): 4.8 µM
GI50 (MDA-MB-435): 12 µM
TGI (MDA-MB-435): 25.7 µM
GI50 (EKVX NSCLC): 12.1 µM
TGI (EKVX NSCLC): 26.4 µM
GI50 (MDA-MB-231 breast): 6.7 µM
TGI (MDA-MB-231 breast): 19.3 µM
GI50 (TK-10 renal): 14.3 µM
TGI (TK-10 renal): 27.8 µM
GI50 (CCRF-CEM leukemia): 1.68 µM
TGI (CCRF-CEM leukemia): 24.2 µM
GI50 (UO-31 renal): 8.79 µM
TGI (UO-31 renal): 21.1 µM
GI50 (HS 578T breast): 7.9 µM
TGI (HS 578T breast): 36.4 µM
GI50 (SNB-75 CNS): 4.89 µM
TGI (SNB-75 CNS): 23.2 µM
GI50 (A549 NSCLC): 45.9 µM
TGI (A549 NSCLC): > 100 µM
